Data on eight molecules can be found in PubChem BioAssay (NCI).

Some test systems named below: OVCAR-3 ovarian; KM12 colon; HOP-62 NSCLC; SNB-75 CNS; HCC-2998 colon; DU-145 prostate; SF-295 CNS; MALME-3M melanoma; PC-3 prostate; HS 578T breast; SK-MEL-5 melanoma.
Assay in all cases: NCI tumour cell line growth inhibition, 48 h

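Exposure lasted 48 hours, with cells grown in 96-well plates and compounds tested at five concentrations. TGI: concentration producing complete growth inhibition.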

Consider `COC(=O)C1=C(C)NC(=O)N2[C@@H](CCOCc3ccccc3)CC[C@@H]12`, for which the TGI in the assay with OVCAR-3 ovarian, with KM12 colon, in the assay with HOP-62 NSCLC, with SNB-75 CNS, in the assay with HCC-2998 colon and in the assay on DU-145 prostate was greater than 50 µM each time. For the same molecule, the TGI with SF-295 CNS, in the assay with MALME-3M melanoma, in the assay with PC-3 prostate, in the assay with HS 578T breast and in the assay on SK-MEL-5 melanoma was greater than 50 µM each time.
As for `CC(C)(C)C1=C(Br)C(F)(C(C)(C)C)OP1(=O)c1ccccc1` (stereo not drawn), the TGI in the assay with OVCAR-3 ovarian came to 28.8 µM; with KM12 colon, 33.7 µM; in the assay on HOP-62 NSCLC it was 30 µM; in the assay with SNB-75 CNS, 30.9 µM; in the assay on HCC-2998 colon it was 28.4 µM; in the assay on DU-145 prostate, 32 µM. The TGI in the assay on SF-295 CNS was found to be 37 µM; in the assay with MALME-3M melanoma it was 32 µM; in the assay on PC-3 prostate, 32 µM; in the assay with HS 578T breast it was 53.8 µM; with SK-MEL-5 melanoma, 22.9 µM.
With `CCOC(=O)C(NC(=O)c1cccc(Cl)c1)(Nc1ccc(S(=O)(=O)Nc2cc(C)on2)cc1)C(F)(F)F` (stereo not drawn), the TGI with OVCAR-3 ovarian, with KM12 colon, in the assay on HOP-62 NSCLC, in the assay on SNB-75 CNS, in the assay with HCC-2998 colon and in the assay with DU-145 prostate was greater than 100 µM throughout. The TGI is 33.4 µM in the assay with SF-295 CNS; greater than 100 µM in the assay with MALME-3M melanoma; greater than 100 µM with PC-3 prostate; greater than 100 µM in the assay with HS 578T breast; greater than 100 µM in the assay with SK-MEL-5 melanoma.
For the molecule `COc1cc(C2C=C(c3ccccc3)Oc3cc4c(cc32)OCO4)cc(OC)c1OC` (stereo not drawn), the TGI in the assay with OVCAR-3 ovarian was greater than 100 µM; in the assay with KM12 colon, greater than 30.6 µM; with HOP-62 NSCLC it was greater than 100 µM; with SNB-75 CNS, greater than 90.8 µM; in the assay on HCC-2998 colon it was greater than 100 µM; in the assay on DU-145 prostate, 4.58 µM. The TGI was greater than 16.9 µM in the assay on SF-295 CNS; greater than 100 µM in the assay with MALME-3M melanoma; greater than 100 µM with PC-3 prostate; greater than 100 µM in the assay on HS 578T breast; greater than 47.8 µM in the assay with SK-MEL-5 melanoma.
As to `NCC(=O)Nc1ccccc1`, the TGI with OVCAR-3 ovarian, in the assay on KM12 colon, in the assay on HOP-62 NSCLC, in the assay with SNB-75 CNS, in the assay on HCC-2998 colon and with DU-145 prostate was greater than 100 µM in each case. Further, the TGI with SF-295 CNS, with MALME-3M melanoma, with PC-3 prostate, in the assay with HS 578T breast and with SK-MEL-5 melanoma was greater than 100 µM throughout.
`CCOP(=O)(OCC)Oc1c(OC)c2[nH]c(C(=O)OC)cc2c2c(C(=O)O)c[nH]c12`: the TGI is greater than 100 µM with OVCAR-3 ovarian; 81.3 µM in the assay with KM12 colon; greater than 100 µM with HOP-62 NSCLC; greater than 100 µM in the assay with SNB-75 CNS; greater than 100 µM with HCC-2998 colon; greater than 100 µM in the assay on DU-145 prostate. Also, the TGI with SF-295 CNS, with MALME-3M melanoma, in the assay on PC-3 prostate, in the assay with HS 578T breast and in the assay with SK-MEL-5 melanoma was greater than 100 µM in each case.
For `COc1ccc(/[N+]([O-])=C/c2ccc(OC(=S)S)c(OC)c2)cc1`, the TGI is greater than 100 µM with OVCAR-3 ovarian; 33.3 µM with KM12 colon; greater than 100 µM with HOP-62 NSCLC; 51.1 µM with SNB-75 CNS; greater than 100 µM in the assay on HCC-2998 colon; greater than 100 µM in the assay on DU-145 prostate. Besides, the TGI in the assay on SF-295 CNS is greater than 100 µM; with MALME-3M melanoma it was greater than 100 µM; in the assay on PC-3 prostate, greater than 100 µM; with HS 578T breast it was greater than 100 µM; in the assay on SK-MEL-5 melanoma it was 93.2 µM.
Consider `COc1ccc2c(c1)c1c3c(ccc4ncn2c43)N(CCO)CCN=1`, for which the TGI in the assay on OVCAR-3 ovarian came out at 0.648 µM; with KM12 colon it was 1.22 µM; in the assay on HOP-62 NSCLC, 0.476 µM; with SNB-75 CNS, 1.19 µM; in the assay on HCC-2998 colon, 0.369 µM; in the assay on DU-145 prostate, 1.59 µM. In addition, the TGI in the assay with SF-295 CNS was determined as 0.831 µM; in the assay with MALME-3M melanoma, 0.43 µM; in the assay on PC-3 prostate, 0.464 µM; in the assay with HS 578T breast it was 0.605 µM; in the assay on SK-MEL-5 melanoma it was 0.403 µM.
